We go through 2 molecules from patent publication EP4048709B1, “A DRUG FOR THE TREATMENT OF CERVICAL CANCER” (Yildiz Teknik Universitesi, priority 2020, dated 2022).

The subject of data set [1] is HeLa cells. Kind of data set: proliferation rate analysis (MTT, mitochondrial dehydrogenase enzyme activity). The data set is classed as cell-based, human. As to conditions: for absorbance values / viability of cells: 24 hours; for absorbance values: MTT, 570 nm with reference to 690 nm, control group 590×10^-3; for viability of cells: control group considered 100%. The procedure:
Different concentrations of In(III)Pc complex were applied to cultured human cervical cancer originated HeLa cells for 24 hours in order to determine the changes in mitochondrial dehydrogenase enzyme activity of cancer cells by means of the In(III)Pc complex obtained. For proliferation rate analysis, routinely cultured HeLa cells were cultivated in culture plates with 96 wells such that the growth medium is 3×10^4 cell/ml per well. In(III)Pc complex prepared at 50 µM, 100 µM, and 150 µM concentrations were applied to the cells after waiting for the cells to adhere and spread. The growth medium in the wells was withdrawn and 40 µl of 3-(4,5-dimethylthiazol-2-yl)-2,5-diphenyltetrazolium bromide (MTT) (5mg/ml) was added at the end of the experiment periods. 160 µl of dimethyl sulfoxide (DMSO) was added to the wells with MTT and incubated for 1 hour in a shaker incubator after waiting for approximately 4 hours. The absorbance values of the formed experimental groups were carried out by means of the spectrophotometer measurements at 570 nm with reference to the 690 nm wavelength after the formazan crystals formed are dissolved for the 1 hour incubation period. The absorbance values obtained as a result of this application were measured as 590×10^-3 for the control group; 460 ×10^-3 for 50 µM; 280 ×10^-3 for 100 µM, and 170 ×10^-3 for 150 µM.

The nature of data set [2]: photodegradation quantum yield under irradiation. Format: physicochemical. The procedure: DPBF with a concentration of […] was used in order to prevent chain reactions caused by the presence of singlet oxygen. Solutions of a sensitizer containing DPBF (absorbance at irradiation wavelength = 2.0) were prepared in a dark environment and irradiated in the Q band area by means of using the setup described above. This yield was found as 49%, according to Figure 7. The maximum absorbance of the Q band in the solutions of all complexes was set to 1.0 in the solvent used in order to determine the photodegradation quantum yield (Φd), and the decrease in the intensity of the Q band under irradiation with time is observed by means of using the following Equation-3: Φd = ((C0−Ct).V.NA)/(Iabs .S.t) [formula] wherein, • C0 (mol.dm^-3); concentration of Compound 2 before irradiation, • Ct (mol.dm^-3); concentration of Compound 2 […]; reaction volume (3.0 cm^3), • S; irradiated cell area, • t; irradiation time, • NA; Avogadro's number, • Iabs; the overlapping integration of the radiation source intensity. […] It has been observed that Compound 2 is active in destroying cancer cells, and as such may have a potential for the treatment of cancer with PDT when considering the PDT characteristic measurement results described above.

Data set [3] can be described thus: singlet oxygen quantum yield (DPBF quencher, ZnPc standard). Format: physicochemical. As to conditions: irradiated in the Q band area, room conditions, Figure 7. The procedure: Singlet oxygen quantum yields of the inventive Compound 2 were calculated by means of Zinc (II) phthalocyanine (ZnPc) standard and 1,3-diphenylisobenzofuran (DPBF) singlet oxygen quencher at room conditions via using Equation-2 below: ΦΔ = ΦΔ^Std .(RDPBF .Iabs^Std)/(RDPBF^Std .Iabs) [formula] wherein, • Φ^StdΔ; the singlet oxygen yield (ZnPc ΦΔ = 0,53 in THF) • ΦΔ; for example, singlet oxygen yield, • RDPBF; the degradation rate of DPBF in the presence of the sample, • ROPBFstd; the degradation rate of DPBF in the presence of the standard, • Iabs; the light absorption rate of sample and standard, • IabStd; the light absorption rate of the standard.
DPBF with a concentration of […] was used in order to prevent chain reactions caused by the presence of singlet oxygen. Solutions of a sensitizer containing DPBF (absorbance at irradiation wavelength = 2.0) were prepared in a dark environment and irradiated in the Q band area by means of using the setup described above. This yield was found as 49%, according to Figure 7. […]

Data set [4] is described as follows: solubility in common solvents. Particulars: chloroform, acetone, THF, ethanol, methanol, DMF or DMSO. The data set is classed as physicochemical. The procedure:
The compound obtained by means of the aforementioned method is in the form of a dark green crystal, and the yield thereof is 82 mg (16,14%). The closed formula of Compound 2, which has a melting point >300°C is C89H99InN8O6, and its molecular weight is 1491,61 g/mol. It has been determined that C, 71.66; H, 6.69; […]; N, 7.51; O, 6.44 when the theoretical elemental analysis of the compound was performed. FTIR analysis was conducted in order to shed light upon the structure of said Compound 2 and it is illustrated in Figure 3. […] Table 1. The solubility data of the In(III) Pc compound.

Data set [5] concerns HeLa cells. Kind of data set: mitotic index (Feulgen method, Giemsa staining). As to conditions: 100 µM. Format: cell-based, human. Here is the method:
As a result of applying the optimum concentration of the product(100 µM) on HeLa cells for 0-72 hours, the preparations prepared according to the experimental groups were primarily hydrolyzed with 1 N hydrochloric acid (HCl) at room temperature for 1 minute and then with 1 N HCl at 60°C for 10 minutes in order to determine the effects on the mitotic index values of the cells. After hydrolysis, the Feulgen method was applied to the preparations for 1 hour. Then, these preparations were washed 3 times for 2 minutes with a washing solution, which is specific to the Feulgen method, and air-dried. After the preparations were dried, they were prepared for counting by means of staining with Giemsa dye for 2 minutes. Late prophase, metaphase, anaphase, and telophase stages were counted in order to determine the mitosis index (MI) values of said preparations. The early prophase stage was evaluated together with this stage, as it was morphologically similar to the cells in the interphase group.
Three preparations were evaluated for each experimental group and mitosis index values were determined by means of counting 3000 cells on average from each preparation. The mitosis index values have been decreased from 6% to 3,7% at the 24th hour; from 6,68% to 2,21% at the 48th hour, and from 7,56% to 1,19% at the 72nd hour.

Data set [6] relates to HeLa cells. The data set is described as follows: cell index, real-time cell analysis system. The data set is classed as cell-based, human. As to conditions: 72 hours. Here is the method: In the present invention, the cell index parameter was evaluated by means of using a real-time cell analysis system in order to both support the results obtained and to determine the types of cell death, and an E-Plate with 16 wells was used in order to evaluate this parameter. Primarily, 100 µl of growth medium was added to each well of the E-Plate, and background measurements were taken in the cell analyzer device. Then, cultivation is performed in each well such that the 100 µl of growth medium has 6000 cells for HeLa cells. The E-Plates were incubated for 20 minutes in a sterile working cabinet at room temperature, and then placed in the cell analyzer device and incubation was continued at 37°C under ambient conditions of 5% carbon dioxide (CO2) after the cultivation process. The cell analyzer was issued a command to take the measurement every 15 minutes after the cell cultivation to the E-Plates was performed. After approximately 24 hours of cell cultivation, the growth medium in the E-Plates was changed with a growth medium containing different concentrations of In(III)Pc complex at the 1/3rd slice of the proliferation phase of the cells, and measurements were continued at 15-minute intervals for 72 hours. Subsequently, graphics of concentration and time-dependent cell index values were transferred to the computer screen. The antiproliferative effects of the In(III)Pc complex on HeLa cells are observed when the cell index values obtained from the real-time cell analysis system are examined.

The conditions of data set [7]: standard, in THF; cited from earlier work.

For “1,8(11), 15(18),22(25)-tetra-(3,5-di-tert-butylphenoxy) indium (III) phthalocyanine [Compound 2]”, the absorbance values in data set [1] (50 µM) was 460 ×10^-3; in data set [1] (100 µM), 280 ×10^-3; in data set [1] (150 µM) it was 170 ×10^-3. For the same molecule, the viability of cells in data set [1] (50 µM) was determined as 78%; in data set [1] (100 µM), 47.45%; in data set [1] (150 µM), 28.81%. For the same molecule, the “death of the cells” value in data set [1] (100 µM) is on record as 52.55%. Further, in data set [1] (HeLa cells, read-out: IC50 concentration), the IC50 stood at 100 µM. Besides, in data set [2] (Q band absorbance set to 1.0, irradiation with time), the “photodegradation quantum yield (Φd)” value is reported as 2,0017×10^-05. The “stability under the light” value in data set [2] (from the photodegradation quantum yield) was “stable under the light”. The molecule also came in with a singlet oxygen yield in data set [3] of 49%. In data set [4], the solubility entry is on record as “capable of getting dissolved in common solvents”. Further, the mitosis index values in data set [5] (24th hour, decreased from 6%) was 3,7%; in data set [5] (48th hour, decreased from 6,68%), 2,21%; in data set [5] (72nd hour, decreased from 7,56%), 1,19%. Also, the “effect on cell index values compared with standard curves” value in data set [6] (50 µM) was “does not show a significant effect”; in data set [6] (100 µM (optimum concentration)) it was “DNA damaging effect”; in data set [6] (100 µM (optimum concentration), listed as In(III)Pc complex), “DNA damage”; in data set [6] (150 µM), “cytoskeletal effect”.

Turning to `[Zn+2].c1ccc2c(c1)-c1nc-2nc2[n-]c(nc3nc([n-]c4nc(n1)-c1ccccc1-4)-c1ccccc1-3)c1ccccc21` [ZnPc, Zinc (II) phthalocyanine], in data set [7], the “singlet oxygen yield ΦΔ” value is recorded as 0,53.
